Measured values from patent US6541509B2 (priority 2000, dated 2003).
Read-outs that look alike come from different tables or passages of the source.

Legend:
J774.2 = assay: cells; format: cell-based, mouse; conditions: Mus musculus; J774.2, 72 h, mean ± SE; read-out: IC50 (drug concentration that inhibits cell division by 50%)
Description: (§1) The drug-sensitive mouse macrophage-like cell line, J774.2, and its Taxol-resistant cell line, J7-T3-1.6, were maintained as previously described. […] Drug-sensitive and vinblastine-resistant human ovarian carcinoma cell lines, SKOV3 and SKVLB, were obtained from Dr. V. Ling, and were maintained as previously described. Both J7-T3-1.6 and SKVLB cells overexpress P-glycoprotein. SKVLB cells were grown in the presence of 1 μM vinblastine. The Taxol-resistant human non-small-cell lung carcinoma cell line, A549-T12, was derived from the drug-sensitive A549 cell line; both cell lines were maintained as previously described.
(§2) For the A549 cell lines, cells were seeded at a density of 1×10^4 cells/mL (A549) or 3×10^4 cells/mL (A549-T12), in triplicate, 6-well plates, and allowed to attach for 24 h. […] The SKOV3 and SKVLB cell lines were assayed in a similar manner. Cells were seeded in triplicate, at a density of 6×10^3 cells/mL (SKOV3) or 12×10^3 cells/mL (SKVLB), in 6-well plates, and incubated with a drug for 6 days. […] J774.2 and J7-T3-1.6 cells were plated at a density of 2×10^4 cells/well, in 96-well plates, and allowed to attach overnight. Serial dilutions of each drug were performed, and the cells were incubated for 72 h. The IC50 was determined using the CellTiter 96™ AQueous nonradioactive cell proliferation assay (Promega, Madison, Wis.), which correlates with the number of live cells. Different methods for determining IC50 values were used, depending on the most accurate method for each particular set of cell lines.

J7-T3-1.6 = assay: cells; format: cell-based, mouse; conditions: for Fold resistance (ratio of IC50 J7-T3-1.6 to J774.2): after 72 h
Description: as §1, §2

P-glycoprotein = assay: Steady-state accumulation of [3H]Taxol; format: cell-based; conditions: Taxol-resistant murine cell line; data not shown
A549-T12 cells [1] = format: cell-based, human; conditions: 48 h
Description: A549-T12 cells were grown on cover slips and treated with the different compounds for 48 h. Cells were then permeabilized, fixed, and incubated with an α-tubulin antibody, as described below.
A549-T12 cells, which were grown to subconfluency on glass cover slips in the absence of drug or in the presence of different drugs at varying concentrations (FIG. 4), were prepared for immunofluorescence microscopy as previously described, with the following modifications: (a) nonspecific binding was blocked using 10% normal goat serum in PBS for 30 min at 37° C.; (b) cells were incubated with a monoclonal antibody to α-tubulin (Sigma; 1:100 dilution; 5% normal goat serum in PBS), followed by a Cy3-conjugated anti-mouse IgG secondary antibody (Amersham, Arlington Heights, Ill.; 1:1000 dilution); and (c) slides were analyzed using the Zeiss Axioskop microscope (rhodamine filter) at 63× magnification.

[2] = literature [13], [16]; discodermolide value predicted; cited from earlier work
microtubules = assay: In vitro microtubule polymerization assay; format: biochemical; conditions: in the absence of GTP
A549-T12 cells [3] = assay: Drug combination assay (colorimetric proliferation assay), Taxol titrated with test drug; format: cell-based, human; conditions: 72 h
Description: For the drug combination assay, the cells were analyzed after 72 h using a cell proliferation assay, as described below. A: cytotoxicity curves of A549-T12 cells in the absence of Taxol or in the presence of Taxol (in various concentrations), in combination with a range of discodermolide concentrations; B-D: cytotoxicity curves of A549-T12 cells in the absence or presence of 2 nM Taxol, in combination with eleutherobin or the epothilones. —⬭—: no Taxol; ---⬬----: 2 nM Taxol.
For the drug combination assay, A549-T12 cells were seeded in triplicate, at a density of 4×10^4 cells/mL, in 96-well plates, in the absence of Taxol or in the presence of various concentrations of Taxol, in combination with serial dilutions of each test drug. After a 72-h incubation, the plates were assayed using the colorimetric proliferation assay. In order to sustain the growth of A549-T12 cells in the absence of Taxol, cells were seeded at the higher densities described above.

A549-T12 cells [4] = format: cell-based, human
Description: Cells were incubated with the different agents for 48 h, fixed, stained with propidium iodide, and analyzed by flow cytometry, as described below.
For the drug substitution experiments, A549-T12 cells were seeded at a density of 3×10^4 cells/mL in 75-cm^2 flasks, and treated with various drugs at the indicated concentrations (FIG. 5). After 48 h, both adherent and nonadherent cells were harvested, fixed in 70% ethanol for at least 20 min, permeabilized with 0.1% Triton X-100 in PBS for 3 min, and stained for 30 min at 37° C. with 10 μg/mL of propidium iodide (Sigma) in a PBS solution containing 1 μg/mL of RNase A (Boehringer Mannheim, Indianapolis, Ind.). Cell-cycle analysis was performed using the Becton Dickinson FACScan and the CellQuest program. […] The cells then were prepared as described above.

SKVLB = assay: cells; format: cell-based, human; conditions: for Fold resistance (ratio of IC50, SKVLB and SKOV3): after 6 days
Description: as §1, §2

A549-T12 = assay: cells; format: cell-based, human; conditions: for Fold resistance (ratio of IC50 A549-T12 to A549): 72 h
Description: as §1, §2

A549 = assay: cells; format: cell-based, human; conditions: A549, 72 h, mean ± SE
Description: as §1, §2

SKOV3 = assay: cells; format: cell-based, human; conditions: SKOV3, 6 days, mean ± SE
Description: as §1, §2

For `C=C/C=C\[C@H](C)[C@H](OC(N)=O)[C@@H](C)[C@H](O)[C@@H](C)C/C(C)=C\[C@H](C)[C@@H](O)[C@@H](C)/C=C\[C@@H](O)C[C@@H]1OC(=O)[C@H](C)[C@@H](O)[C@H]1C` [Disco, discodermolide], the IC50 (J774.2) was 36 ± 5.5 nM, the IC50 (J7-T3-1.6; Mus musculus, J7-T3-1.6, 72 h, mean ± SE, read-out: IC50 (drug concentration that inhibits cell division by 50%)) was 1050 nM and the “Fold resistance (ratio of IC50 J7-T3-1.6 to J774.2)” value (J7-T3-1.6) was 29.2 fold. The “Fold resistance (ratio of IC50 J7-T3-1.6 to J774.2)” value (J7-T3-1.6; listed as discodermolide) was “low resistance”, the “Substrate for P-glycoprotein” value (P-glycoprotein) was “not substrates for P-glycoprotein” and the “Concentration at which microtubules became arranged in bundle-like formations at the periphery of the cell” value (A549-T12 cells [1]) was ≥ 12 nM. The “Microtubule cytoskeleton / ability to substitute for Taxol” value (A549-T12 cells [1]; concentrations as in FIG. 4) was “Neither discodermolide nor vinblastine was able to substitute for Taxol”, the “Solubility relative to Taxol” value [2] was 100 times more soluble than Taxol and the Assembly of microtubules (microtubules) was “enhanced the assembly of stable microtubules”. The “Taxol concentration at which the potency of discodermolide was maximal” value (A549-T12 cells [3]; Taxol titrated with a range of discodermolide concentrations) was 2 nM, the “Loss of sensitivity of A549-T12 cells to the drug in the absence of 2 nM Taxol” value (A549-T12 cells [3]; absence vs presence of 2 nM Taxol) was 20 fold and the Cell-cycle profile (A549-T12 cells [4]; 48 h, 2 nM Taxol, discodermolide 2 or 6 nM, other drugs as in FIG. 5) was “did not prevent the development of a G2-M-phase block”. The “Reversal of the G2-M-phase block induced by Taxol removal” value (A549-T12 cells [4]; 48 h without Taxol, then 48 h with drug, discodermolide 0.001-24.0 nM, data not shown) was “irreversible”, the Cell-cycle profile (A549-T12 cells [4]; discodermolide 0.001-1.0 nM) was “G2-M-phase block” and the Cell-cycle profile (A549-T12 cells [4]; discodermolide 12-24 nM) was “substantial increase in the hypodiploid population”. The IC50 (SKVLB; Homo sapiens, Ovarian carcinoma cell, 144 h, SKVLB, 6 days, mean ± SE, read-out: IC50 (drug concentration that inhibits cell division by 50%)) was 575 ± 233 nM, the “Fold resistance (ratio of IC50, SKVLB and SKOV3)” value (SKVLB) was 59.3 fold and the “Fold resistance (ratio of IC50, SKVLB and SKOV3)” value (SKVLB; listed as discodermolide) was “low-level cross-resistance”. The “Fold resistance (ratio of IC50 A549-T12 to A549)” value (A549-T12) was 0.8 fold, the “Fold resistance (ratio of IC50 A549-T12 to A549)” value (A549-T12; listed as discodermolide) was “no cross-resistance” and the IC50 (A549-T12; Homo sapiens, A549-T12, 72 h, cells maintained in 2 nM Taxol, mean ± SE, read-out: IC50 (drug concentration that inhibits cell division by 50%)) was 6.5 ± 2.4 nM. The “IC50 (drug concentration that inhibits cell division by 50%)” value (A549) was “comparable activities”, the IC50 (A549; Homo sapiens, read-out: IC50 (drug concentration that inhibits cell division by 50%)) was 8.1 ± 0.14 nM and the IC50 (SKOV3; Homo sapiens, SK-OV-3, 144 h, read-out: IC50 (drug concentration that inhibits cell division by 50%)) was 9.7 ± 0.3 nM. The “IC50 (drug concentration that inhibits cell division by 50%)” value (SKOV3) was “decreased but similar responses”.
